Where a name gives a salt, the structure may show the parent alone.
Assays:
[1] = Particle size distribution (Sympatec HELOS, dry powder dispersion); type: physicochemical; design: particle size D90: dose or concentration left out as unconfirmed; conditions: for Particle size distribution (PSD) % <10 μM / Particle size distribution (PSD) % <50 μM / particle size D90: crystalline product as isolated, no milling; for particle size D90: the values are: particle size D90
Protocol: Determination of particle size distribution was carried out using a Sympatec HELOS System H1588 with a RODOS/M Dry Powder Dispersion System.

CRTH2 = target: T1, CRTH2 (Homo sapiens, UniProt Q9Y5Y4); experiment: CRTH2 antagonistic activity (statement only, no method given)
T1 sequence (Q9Y5Y4 1-395): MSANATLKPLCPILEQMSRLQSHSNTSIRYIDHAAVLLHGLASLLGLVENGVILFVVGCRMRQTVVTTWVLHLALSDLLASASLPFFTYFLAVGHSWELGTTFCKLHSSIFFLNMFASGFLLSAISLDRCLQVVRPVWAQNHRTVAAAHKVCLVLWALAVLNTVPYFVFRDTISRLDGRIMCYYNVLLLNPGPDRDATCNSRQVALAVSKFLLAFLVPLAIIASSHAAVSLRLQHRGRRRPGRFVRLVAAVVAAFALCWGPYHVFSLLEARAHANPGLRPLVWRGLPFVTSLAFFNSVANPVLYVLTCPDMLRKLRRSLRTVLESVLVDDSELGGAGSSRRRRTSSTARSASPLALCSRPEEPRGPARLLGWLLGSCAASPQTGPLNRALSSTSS

[2] = Dynamic vapor sorption/desorption (DVS); type: physicochemical; conditions: up to 75% relative humidity at 25° C.
Protocol: Vapor sorption/desorption was carried out using Surface Measurement Systems DVS-HT. Samples were placed into a foil insert placed on a sample pan. […] The equilibrium point of each step was reached when 0.002% of weight change was reached.

In the case of `CN(C)c1nc(Cc2ccc(NC(=O)c3ccc(C(F)(F)F)cc3)cc2)nc(N(C)C)c1CC(=O)O` [choline salt of [4,6-bis(dimethylamino)-2-(4-{[4-(trifluoromethyl)benzoyl]amino}benzyl)pyrimidin-5-yl]acetic acid], the “Particle size distribution (PSD) % <10 μM” value ([1]; listed as Comp. Ex. 2) is reported as 11.57, the “Particle size distribution (PSD) % <50 μM” value ([1]; listed as Comp. Ex. 2) is reported as 60.13 and the particle size D90 ([1]; listed as Comp. Ex. 2) is reported as 120 µm. For the same compound, the “Particle size distribution (PSD) % <10 μM” value ([1]; listed as Comp. Ex. 3) was 6.87, the “Particle size distribution (PSD) % <50 μM” value ([1]; listed as Comp. Ex. 3) was 57.62 and the particle size D90 ([1]; listed as Comp. Ex. 3) was 181 µm. For the same compound, the “Particle size distribution (PSD) % <10 μM” value ([1]; listed as Comp. Ex. 4) was 3.01, the “Particle size distribution (PSD) % <50 μM” value ([1]; listed as Comp. Ex. 4) was 13.62 and the particle size D90 ([1]; listed as Comp. Ex. 4) was 38 µm. The “Particle size distribution (PSD) % <10 μM” value ([1]; listed as Ex. 1) was 5.13, the “Particle size distribution (PSD) % <50 μM” value ([1]; listed as Ex. 1) was 16.67 and the particle size D90 ([1]; listed as Ex. 1) was 35.5 µm. For the same compound, the “diameter of 90% of the choline salt particles” value ([1]; seeding step with seeding particles of which 90% have a diameter of less than 50 μm) was “less than 100 μm”, the CRTH2 antagonistic activity (CRTH2) was “excellent” and the “hygroscopicity (DVS isotherm, FIG. 3)” value [2] was “non-hygroscopic”.

From US20110294828A1, “PROCESS FOR PREPARING A POLYMORPH OF THE CHOLINE SALT OF A PYRIMIDIN-5-YL ACETIC ACID DERIVATIVE” (BOEHRINGER INGELHEIM INTERNATIONAL GMBH, priority 2009, published 2011)
